For series [1], the system named is KMS-12-PE cells. Nature of the series: Apoptosis measurement (AnnexinV/PI staining) on myeloma cells. The following applies: for viability at 12.5 µM / viability at 25 µM / viability at 50 µM / EC50: Homo sapiens, 48 h; for viability at 12.5 µM / viability at 25 µM / viability at 50 µM: read-out: % Alive (cells alive of control); for EC50: best-fit model. It counts as cell-based. The method, then: (§1) Cytotoxicity was measured as induction of apoptosis in myeloma cell line KMS-12-PE and AML cell line Molm-13, staining the cells with AnnexinV-fluorescein isothiocyanate (AnnexinV-FITC) and propidium iodide (PI). Cell lines were purchased from DSMZ (Braunschweig, Germany) and routinely fingerprinted and tested for mycoplasma negativity. All cell lines were grown in RPMI-1640 medium (Life Technologies, Paisley, UK), and supplemented with 10% fetal calf serum (FCS; PAA, Linz, Austria), L-glutamine 100 µg/mL, and penicillin-streptomycin 100 U/mL. Compounds were dissolved in DMSO at a stock concentration of 50 mM and stored at −20 °C. Briefly, 0.5 × 10^6 cancer cells/mL were incubated for 24 h and 48 h with or without the tested compounds at indicated concentrations. Analyses were performed in duplicates and a solvent control was included. The extent of non-apoptotic cells (AnnexinV/propidium iodide negativity) was calculated as the percentage of viable cells in respect to the untreated control. Data are shown as the mean percentage of viable cells +/− standard deviation (SD) (error bars).

Series [2] has as its system Molm-13 cells. Nature of the series: Apoptosis measurement (AnnexinV/PI staining) on AML cells. Type of series: cell-based. Particulars: for EC50: best-fit model; for viability at 12.5 µM: Molm-13, 12.5 µM; for viability at 12.5 µM / viability at 25 µM / viability at 50 µM: 48 h, read-out: % Alive (cells alive of control); for viability at 25 µM: Molm-13, 25 µM; for viability at 50 µM: Molm-13, 50 µM. On the procedure:
as §1

In series [3] the test system is KMS-12-PE cells. The experiment in a line: Proliferation, modified MTT assay (EZ4U) on myeloma cells. It counts as cell-based. The following applies: 10 to 2.5 µM (gilteritinib 2.5 µM), 48 h. The method, then:
(§2) Proliferation was measured using a modified MTT assay (EZ4U kit, Biomedica, Vienna, Austria) according to the manufacturer’s instructions. In brief, 2.5 × 10^4 (Molm-13)—5.0 × 10^4 cells (KMS-12-PE cells) were seeded in 96-well plates and substances were added as indicated. Different concentrations are due to the different doubling time of the cells (24 h vs. 48 h). Cells were incubated for 48 h and during the last 7 h of incubation, 3-(4,5-dimethylthiazol-2-yl)-2,5-diphenyltetrazolium bromide was added as a substrate. Reduction of the tetrazolium salt to formazan by the mitochondrial activity of the growing cells was measured as optical density at 492 nm (with 620 nm as reference) on a plate reader. Proliferation (mean +/− SD) was calculated as the percentage of control (without substances). Concentrations used were 10 µM/5 µM/2.5 µM for all substances. Gilteritinib was used as a positive control at 2.5 µM.
For orientation: Formazan colour is commonly taken as a measure of viable cells.

Series [4] deals with Molm-13 cells. Nature of the series: Proliferation, modified MTT assay (EZ4U) on AML cells. Type of series: cell-based. The following applies: 48 h, compared to untreated cells; for inhibition at 2.5 µM: Homo sapiens, Molm-13, 2.5 µM. The method, then: as §2
In the next series the target is T1, FLT3 (Homo sapiens, UniProt P36888).
T1 construct: purchased Thermo Fisher Scientific Inc. (Waltham, MA, USA)
T1 sequence (P36888 27-993): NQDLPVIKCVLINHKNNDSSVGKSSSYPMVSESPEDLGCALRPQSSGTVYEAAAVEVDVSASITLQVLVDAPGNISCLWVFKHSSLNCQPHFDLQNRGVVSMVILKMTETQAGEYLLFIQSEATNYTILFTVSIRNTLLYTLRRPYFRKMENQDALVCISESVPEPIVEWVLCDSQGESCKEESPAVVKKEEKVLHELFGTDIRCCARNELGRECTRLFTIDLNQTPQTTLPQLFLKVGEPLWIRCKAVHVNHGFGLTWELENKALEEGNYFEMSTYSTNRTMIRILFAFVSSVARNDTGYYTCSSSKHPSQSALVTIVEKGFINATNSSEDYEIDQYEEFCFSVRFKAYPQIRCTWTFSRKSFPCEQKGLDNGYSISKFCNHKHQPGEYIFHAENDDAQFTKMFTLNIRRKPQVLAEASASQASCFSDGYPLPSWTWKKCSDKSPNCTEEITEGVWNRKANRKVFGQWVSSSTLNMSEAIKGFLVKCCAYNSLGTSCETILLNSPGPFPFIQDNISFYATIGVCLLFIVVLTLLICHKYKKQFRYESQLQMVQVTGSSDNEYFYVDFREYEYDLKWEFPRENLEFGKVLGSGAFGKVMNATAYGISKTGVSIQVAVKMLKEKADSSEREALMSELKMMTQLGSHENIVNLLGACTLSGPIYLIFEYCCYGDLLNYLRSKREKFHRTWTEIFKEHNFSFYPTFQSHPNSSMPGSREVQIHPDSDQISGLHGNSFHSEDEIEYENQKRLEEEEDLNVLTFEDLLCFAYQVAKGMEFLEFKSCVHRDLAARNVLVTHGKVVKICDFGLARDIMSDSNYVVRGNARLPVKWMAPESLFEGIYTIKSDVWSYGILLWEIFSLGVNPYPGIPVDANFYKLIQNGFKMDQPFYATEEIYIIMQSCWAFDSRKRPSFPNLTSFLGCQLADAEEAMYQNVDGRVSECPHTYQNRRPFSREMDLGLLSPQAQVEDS
The experiment in a line: FLT3 kinase assay (Z'-LYTE). It counts as biochemical. The following applies: 6.25 nM (lowest concentration), 20 ng FLT3 protein. The method, then:
FLT3 inhibitory activity of compounds 1 and 3 was determined using the Z’-LYTE screening protocol. Z’-LYTE Kinase Assay—Tyrosine 2 Peptide Kit and FLT3 were purchased from Thermo Fisher Scientific Inc. (Waltham, MA, USA). The assay was performed according to the manufacturer’s instructions using a kinase buffer (50 mM HEPES pH 7.5, 0.01% BRIJ-35, 10 mM MgCl2, 1 mM EGTA) containing 0.01 to 20 ng of FLT3. Compounds were measured at concentrations of 50 nM/25 nM/12.5 nM/6.25 nM using gilteritinib as a positive control.

SMILES strings stand for the structures.

For the molecule `COc1cc2oc(-c3ccc(O)cc3)cc(=O)c2c(O)c1OC` [Compound 1, cirsimaritin], the “Cytotoxic effect / induction of apoptosis (in words)” value with KMS-12-PE cells [1] (12.5-50 µM) is reported as “induced apoptosis”; in the series with Molm-13 cells [2] (Molm-13, 12.5-50 µM), “induced apoptosis”. The viability at 12.5 µM in the series with KMS-12-PE cells [1] worked out at 86.8 ± 14.5%; with Molm-13 cells [2] (Homo sapiens), 77.3 ± 9%. Also, the viability at 25 µM in the series on KMS-12-PE cells [1] stood at 76.6 ± 25.6%; in the series with Molm-13 cells [2] (Homo sapiens) it was 48.4 ± 12%. Also, the viability at 50 µM with KMS-12-PE cells [1] amounted to 58.9 ± 28.6%; in the series on Molm-13 cells [2] (Homo sapiens) it was 12.9 ± 4.1%. In addition, the concentration for a half-maximal effect (EC50) (commonly the concentration at which the effect is half-maximal) was greater than 50 µM in the series on KMS-12-PE cells [1]; roughly 22 µM with Molm-13 cells [2] (Homo sapiens, MOLM-13, 48 h); 21.7 µM in the series with Molm-13 cells [2] (Molm-13, 48 h). Moreover, the “Inhibition of proliferation (in words)” value with KMS-12-PE cells [3] is reported as “marginally”. Further, 2.5 µM produced 72% inhibition in the series on Molm-13 cells [4]. Moreover, at FLT3, the inhibition (in general, the change of the read-out against control, counted positive when it falls) at 0.00625 µM amounted to 81%.
As for `COc1c(OC)c(O)c2c(=O)cc(-c3ccc(O)cc3)oc2c1OC` [Compound 3, xanthomicrol], in the series on KMS-12-PE cells [1], the viability at 12.5 µM worked out at 69.5 ± 16%; the viability at 25 µM came out at 62.6 ± 13.1%; the viability at 50 µM turned out to be 55.4 ± 13.1%; the midpoint of the response, the EC50, lay at 45.4 µM. This molecule also came in with a half-maximal effective concentration (EC50) with Molm-13 cells [2] (Homo sapiens, MOLM-13, 48 h) of roughly 28 µM. Also, in the series on Molm-13 cells [2] (Homo sapiens), the viability at 12.5 µM is 56.4 ± 9.1%, the viability at 25 µM stood at 53.5 ± 1% and the viability at 50 µM was found to be 47 ± 2.7%. In the series on Molm-13 cells [2] (Molm-13, 48 h), this molecule returned an EC50 of 28 µM. In the series on KMS-12-PE cells [3], the “Inhibition of proliferation (in words)” value is “marginally”. The molecule also had an inhibition at 2.5 µM in the series on Molm-13 cells [4] of 84%. The Inhibition of proliferation result with Molm-13 cells [4] (Molm-13, concentrations from 10 to 2.5 µM) was “up to 93%”. Besides, the inhibition at 0.00625 µM against FLT3 stood at 88%.

These data come from publication PMC9696366, “Flavones, Flavonols, Lignans, and Caffeic Acid Derivatives from Dracocephalum moldavica and Their In Vitro Effects on Multiple Myeloma and Acute Myeloid Leukemia” (International Journal of Molecular Sciences, 2022).
